In PubChem BioAssay (NCI):
Several values for one entry are separate records, joined by “and”; a condition that tells them apart may be missing. Identical values can stand only once.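 Five concentrations, 48 hours, 96-well plates. GI50 = concentration required for 50% inhibition of growth. The concentration for full growth arrest is given as TGI.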

Assays:
Test in all cases: DTP human tumour cell line panel, 48 h
CAKI-1 renal = system: CAKI-1 renal
K-562 leukemia = system: K-562 leukemia
HOP-92 NSCLC = system: HOP-92 NSCLC
OVCAR-4 ovarian = system: OVCAR-4 ovarian
SK-MEL-5 melanoma = system: SK-MEL-5 melanoma
NCI/ADR-RES ovarian = system: NCI/ADR-RES ovarian
MOLT-4 leukemia = system: MOLT-4 leukemia
OVCAR-3 ovarian = system: OVCAR-3 ovarian
HOP-62 NSCLC = system: HOP-62 NSCLC
EKVX NSCLC = system: EKVX NSCLC
M14 melanoma = system: M14 melanoma
HT29 colon = system: HT29 colon
COLO 205 colon = system: COLO 205 colon
SK-OV-3 ovarian = system: SK-OV-3 ovarian
RPMI-8226 leukemia = system: RPMI-8226 leukemia

Compound	TGI (CAKI-1 renal)	TGI (K-562 leukemia)	TGI (HOP-92 NSCLC)	TGI (OVCAR-4 ovarian)	TGI (SK-MEL-5 melanoma)	TGI (NCI/ADR-RES ovarian)	TGI (MOLT-4 leukemia)	TGI (OVCAR-3 ovarian)	TGI (HOP-62 NSCLC)	TGI (EKVX NSCLC)	TGI (M14 melanoma)	TGI (HT29 colon)	TGI (COLO 205 colon)	TGI (SK-OV-3 ovarian)	GI50 (CAKI-1 renal)	TGI (RPMI-8226 leukemia)	GI50 (NCI/ADR-RES ovarian)	GI50 (SK-OV-3 ovarian)	GI50 (RPMI-8226 leukemia)	GI50 (K-562 leukemia)
C#CC[C@@H]1C(=O)N(Cc2ccc(OC)cc2)[C@@H](C(C)C)C(=O)N1Cc1ccc(OC)cc1	> 100 µM	> 100 µM	> 100 µM	> 100 µM	30.3 µM	> 100 µM	34.7 µM	> 100 µM	> 100 µM	69 µM	> 100 µM	55.1 µM	37 µM	> 100 µM	–	–	–	–	–	–
CCCCCC(=O)N[C@@H](c1ccco1)[C@@H](O)C(=O)O[C@H]1C[C@@]2(O)[C@@H](OC(=O)c3ccccc3)[C@@H]3[C@]4(OC(C)=O)CO[C@@H]4C[C@H](O)[C@@]3(C)C(=O)[C@H](OC(C)=O)C(=C1C)C2(C)C	–	–	> 25 µM	> 25 µM	4.52 µM	> 25 µM	–	0.000716 µM	> 25 µM	> 25 µM	–	> 25 µM	0.00015 µM	> 25 µM	0.329 µM	8.08 µM	0.617 µM	0.00163 µM	–	–
C[N+](C)(CCCCCC[N+](C)(C)CCCN1C(=O)c2cccc3cccc(c23)C1=O)CCCN1C(=O)c2cccc3cccc(c23)C1=O	> 100 µM	> 100 µM	> 100 µM	> 100 µM	> 100 µM	> 100 µM	> 100 µM	> 100 µM	–	> 100 µM	–	> 100 µM	> 100 µM	> 100 µM	–	> 100 µM	–	–	–	–
COC(=O)C(CC(C)C)NC(=O)C(NC(=O)c1ccc(-c2ccc(Cl)cc2Cl)o1)C(C)C (configuration not stated)	> 100 µM	53.1 µM	45.9 µM	> 100 µM	49.9 µM	> 100 µM	44.7 µM	42.2 µM	65.4 µM	62.6 µM	65.8 µM	42.6 µM	52.2 µM	> 100 µM	–	40.3 µM	–	–	–	–
CC(C)=CCCC(C)(OC1OC(CO)C(O)C(O)C1O)C1CCC2(C)C1C(O)CC1C3(C)CCC(O)C(C)(C)C3C(OC3OC(CO)C(O)C(O)C3OC3OC(C)C(O)C(O)C3O)CC12C (configuration not stated) (tested in a mixture with another compound)	> 75 µM	> 75 µM	> 75 µM	> 75 µM	> 75 µM	> 75 µM	> 75 µM	> 75 µM	> 75 µM	> 75 µM	> 75 µM	> 75 µM	> 75 µM	> 75 µM	–	> 75 µM	–	–	–	–
COc1ccccc1/C=C(/C)[N+](=O)[O-]	4.85 µM and 1.92 µM	5.15 µM and 7.34 µM	5.72 µM	23.6 µM and 14.8 µM	5.1 µM and 3.59 µM	8.69 µM	0.598 µM and 1.5 µM	3.15 µM and 2.68 µM	> 100 µM	20.1 µM and 12.3 µM	25.6 µM and 2.78 µM	12.6 µM and 9.89 µM	10.3 µM	–	2.13 µM and 0.687 µM	–	–	–	0.282 µM and 0.608 µM	0.688 µM and 1.71 µM
CC(C)(O)/C1=C/C=C/CCCCCCCCCC1	> 100 µM	> 100 µM	> 100 µM	–	1.73 µM	> 100 µM	> 100 µM	> 100 µM	> 100 µM	> 100 µM	> 100 µM	> 100 µM	> 100 µM	> 100 µM	–	> 100 µM	–	–	–	–
COc1ccc(Nc2nc3ccccc3n3cccc23)cc1OC	89.1 µM	> 100 µM	> 100 µM	–	24.2 µM	56.1 µM	43.3 µM	42.8 µM	32.7 µM	68.5 µM	30.7 µM	> 100 µM	27.4 µM	63.5 µM	–	54.3 µM	–	–	–	–
O=S(O)CCCCCSSc1ccccc1	–	> 100 µM	–	> 100 µM	–	–	34.2 µM	> 100 µM	> 100 µM	> 100 µM	> 100 µM	> 100 µM	–	> 100 µM	–	56.4 µM	–	–	–	–
COc1cc(OC2OC(CO)C(O)C(O)C2O)c2c(O)c3c(=O)cc(C)oc3cc2c1 (configuration not stated)	> 100 µM	> 100 µM	–	> 100 µM	> 100 µM	–	> 100 µM	> 100 µM	> 100 µM	> 100 µM	> 100 µM	> 100 µM	> 100 µM	> 100 µM	–	> 100 µM	–	–	–	–
OCC1O[C@H](O[C@@H]2CCCN3CC(O)C(O)[C@@H]23)C(O)C(O)C1O (some centres not stated)	> 100 µM	> 100 µM	> 100 µM	> 100 µM	> 100 µM	–	> 100 µM	> 100 µM	> 100 µM	> 100 µM	> 100 µM	> 100 µM	> 100 µM	> 100 µM	–	–	–	–	–	–
FC(F)(F)c1ccc2c(c1)N(CCCNCCN1CCOCC1)c1ccccc1S2	–	10.2 µM	11.2 µM	–	13.8 µM	–	20.1 µM	24.8 µM	27.1 µM	29.4 µM	4.13 µM	10.4 µM	6.84 µM	–	–	28.9 µM	–	–	–	–
OCC#CCNCl	–	> 100 µM	> 100 µM	> 100 µM	> 100 µM	> 100 µM	> 100 µM	> 100 µM	> 100 µM	> 100 µM	–	> 100 µM	> 100 µM	> 100 µM	–	> 100 µM	–	–	–	–
CCOC(=O)Cc1cc(OC)c(OC)cc1/C(Cl)=C(\CO)c1ccc(OC)c(OC)c1	> 100 µM	> 100 µM	98.1 µM	> 100 µM	> 100 µM	–	> 100 µM	> 100 µM	–	> 100 µM	> 100 µM	> 100 µM	> 100 µM	> 100 µM	–	> 100 µM	–	–	–	–
Cc1ccc(/C=C2\Sc3scc(-c4ccccc4)[n+]3C2=O)cc1	33.4 µM	31.5 µM	> 49.7 µM	> 81.1 µM	> 58.2 µM	> 58 µM	> 72.6 µM	> 100 µM	> 100 µM	> 58.5 µM	> 94.9 µM	56.9 µM	52.4 µM	> 67.6 µM	–	35.4 µM	–	–	–	–
Nc1nc(Nc2ccc(Cl)c(Cl)c2)nc2nc[nH]c12	25.1 µM	47.4 µM	33.5 µM	48.4 µM	27.7 µM	38.3 µM	39.2 µM	27 µM	26.1 µM	18.8 µM	29.8 µM	30.6 µM	44.3 µM	31.8 µM	–	62.8 µM	–	–	–	–
CCNC(=O)C(C)C1CCC2(C)C=CC(=O)C(C)=C2C1O (configuration not stated)	> 100 µM	> 100 µM	> 100 µM	> 100 µM	> 100 µM	> 100 µM	> 100 µM	> 100 µM	> 100 µM	> 100 µM	–	> 100 µM	> 100 µM	> 100 µM	–	> 100 µM	–	–	–	–
